Assay results reported in patent publication US20210395217A1, “PESTICIDALLY ACTIVE AZOLE-AMIDE COMPOUNDS” (SYNGENTA PARTICIPATIONS AG, priority 2018, published 2021).

How the values were obtained:
Format in all cases: in vivo
Chilo suppressalis = assay: Example B3: Chilo suppressalis (striped rice stem borer), artificial diet, L2 larvae; details: 144 h, application rate of 200 ppm, 6 days after infestation, read-out: control in at least one of the three categories (mortality, anti-feedant effect, or growth inhibition)
Description: Example B3: Chilo suppressalis (Striped Rice Stem Borer)
24-well microtiter plates with artificial diet were treated with aqueous test solutions prepared from 10′000 ppm DMSO stock solutions by pipetting. After drying, the plates were infested with L2 larvae (6-8 per well). The samples were assessed for mortality, anti-feeding effect, and growth inhibition in comparison to untreated samples 6 days after infestation. Control of Chilo suppressalis by a test sample is given when at least one of the categories mortality, anti-feedant effect, and growth inhibition is higher than the untreated sample.

Spodoptera littoralis = assay: Example B7: Spodoptera littoralis (Egyptian cotton leaf worm), cotton leaf discs sprayed, L1 larvae; details: foliar, 72 h, application rate of 200 ppm, 3 days after infestation, read-out: control in at least one of the three categories (mortality, anti-feedant effect, or growth inhibition)
Description: Example B7: Spodoptera littoralis (Egyptian Cotton Leaf Worm)
Cotton leaf discs were placed onto agar in 24-well microtiter plates and sprayed with aqueous test solutions prepared from 10′000 ppm DMSO stock solutions. After drying the leaf discs were infested with five L1 larvae. The samples were assessed for mortality, anti-feeding effect, and growth inhibition in comparison to untreated samples 3 days after infestation. Control of Spodoptera littoralis by a test sample is given when at least one of the categories mortality, anti-feedant effect, and growth inhibition is higher than the untreated sample.

Plutella xylostella [1] = assay: Example B10: Plutella xylostella (diamondback moth), artificial diet, 96-well, eggs; details: 216 h, application rate of 500 ppm, 9 days after infestation, 96-well plates
Description: Example B10: Plutella xylostella (Diamondback Moth)
96-well microtiter plates containing artificial diet were treated with aqueous test solutions, prepared from 10′000 ppm DMSO stock solutions, by a liquid handling robot. After drying, eggs (˜30 per well) were infested onto a netted lid which was suspended above the diet. The eggs hatch and L1 larvae move down to the diet. The samples were assessed for mortality 9 days after infestation.
The following compounds gave an effect of at least 80% average mortality at an application rate of 500 ppm: […]

Plutella xylostella [2] = assay: Example B4: Plutella xylostella (diamond back moth), artificial diet, 24-well, eggs; details: 192 h, application rate of 200 ppm, 8 days after infestation, 24-well plates, read-out: control in at least one of the two categories (mortality or growth inhibition)
Description: Example B4: Plutella xylostella (Diamond Back Moth)
24-well microtiter plates with artificial diet were treated with aqueous test solutions prepared from 10′000 ppm DMSO stock solutions by pipetting. After drying, Plutella eggs were pipetted through a plastic stencil onto a gel blotting paper and the plate was closed with it. The samples were assessed for mortality and growth inhibition in comparison to untreated samples 8 days after infestation. The following compounds gave an effect of at least 80% control in at least one of the two categories (mortality or growth inhibition) at an application rate of 200 ppm: […]

Diabrotica balteata = assay: Example B1: Diabrotica balteata (corn root worm), maize sprouts sprayed, L2 larvae; details: 96 h, application rate of 200 ppm, 4 days after infestation, read-out: control in at least one of the two categories (mortality or growth inhibition)
Description: Example B1: Diabrotica balteata (Corn Root Worm)
Maize sprouts placed onto an agar layer in 24-well microtiter plates were treated with aqueous test solutions prepared from 10′000 ppm DMSO stock solutions by spraying. After drying, the plates were infested with L2 larvae (6 to 10 per well). The samples were assessed for mortality and growth inhibition in comparison to untreated samples 4 days after infestation.
The following compounds gave an effect of at least 80% control in at least one of the two categories (mortality or growth inhibition) at an application rate of 200 ppm: […]

CC(NC(=O)c1cc(Br)cc(OC(F)F)c1)c1ncnn1-c1ccc(C#N)cn1 (stereo not shown) [Compound F1, 3-bromo-N-[1-[2-(5-cyano-2-pyridyl)-1,2,4-triazol-3-yl]ethyl]-5-( ) difluoromethoxy benzamide]
≥ 80%: percent control (mortality, anti-feedant effect or growth inhibition) at 200 ppm (Chilo suppressalis) | percent control (mortality, anti-feedant effect or growth inhibition) at 200 ppm (Spodoptera littoralis) | mortality at 500 ppm (Plutella xylostella [1]) | percent control (mortality or growth inhibition) at 200 ppm (Plutella xylostella [2]) | percent control (mortality or growth inhibition) at 200 ppm (Diabrotica balteata)

CC(NC(=O)c1cc(C(F)(F)F)cc(C(F)(F)F)c1)c1ncnn1-c1ccc(C#N)cn1 (stereo not shown) [Compound F3, N-[1-[2-(5-cyano-2-pyridyl)-1,2,4-triazol-3-yl]ethyl]-3,5-bis(trifluoromethyl) benzamide]
≥ 80%: percent control (mortality, anti-feedant effect or growth inhibition) at 200 ppm (Chilo suppressalis) | percent control (mortality, anti-feedant effect or growth inhibition) at 200 ppm (Spodoptera littoralis) | mortality at 500 ppm (Plutella xylostella [1]) | percent control (mortality or growth inhibition) at 200 ppm (Plutella xylostella [2]) | percent control (mortality or growth inhibition) at 200 ppm (Diabrotica balteata)

CC(NC(=O)c1cc(SC(F)(F)F)cc(C(F)(F)F)c1)c1ncnn1-c1ccc(C#N)cn1 (stereo not shown) [Compound F5, N-[1-[2-(5-cyano-2-pyridyl)-1,2,4-triazol-3-yl]ethyl]-3-(trifluoromethyl)-5-(trifluoromethylsulfanyl) benzamide]
≥ 80%: percent control (mortality, anti-feedant effect or growth inhibition) at 200 ppm (Chilo suppressalis) | percent control (mortality, anti-feedant effect or growth inhibition) at 200 ppm (Spodoptera littoralis) | mortality at 500 ppm (Plutella xylostella [1]) | percent control (mortality or growth inhibition) at 200 ppm (Plutella xylostella [2]) | percent control (mortality or growth inhibition) at 200 ppm (Diabrotica balteata)

Cc1nc(C(C)NC(=O)c2cc(C(F)(F)F)cc(C(F)(F)F)c2)n(-c2ccc(C#N)cn2)n1 (stereo not shown) [Compound F7, N-[1-[2-(5-cyano-2-pyridyl)-5-methyl-1,2,4-triazol-3-yl]ethyl]-3,5-bis (trifluoromethyl) benzamide]
≥ 80%: percent control (mortality, anti-feedant effect or growth inhibition) at 200 ppm (Spodoptera littoralis) | percent control (mortality or growth inhibition) at 200 ppm (Plutella xylostella [2]) | percent control (mortality or growth inhibition) at 200 ppm (Diabrotica balteata)

CC(NC(=O)c1cc(C(F)(F)F)cc(C(F)(F)F)c1)c1nc(C2CC2)nn1-c1ccc(C#N)cn1 (stereo not shown) [Compound F10, N-[1-[2-(5-cyano-2-pyridyl)-5-cyclopropyl-1,2,4-triazol-3-yl]ethyl]-3,5-bis(trifluoromethyl) benzamide]
≥ 80%: percent control (mortality, anti-feedant effect or growth inhibition) at 200 ppm (Chilo suppressalis) | percent control (mortality, anti-feedant effect or growth inhibition) at 200 ppm (Spodoptera littoralis) | mortality at 500 ppm (Plutella xylostella [1]) | percent control (mortality or growth inhibition) at 200 ppm (Plutella xylostella [2]) | percent control (mortality or growth inhibition) at 200 ppm (Diabrotica balteata)

CC(NC(=O)c1cc(Br)cc(C(F)(F)F)c1)c1nc(C2CC2)nn1-c1ccc(C#N)cn1 (stereo not shown) [Compound F11, 3-bromo-N-[1-[2-(5-cyano-2-pyridyl)-5-cyclopropyl-1,2,4-triazol-3-yl]ethyl]-5-(trifluoromethyl) benzamide]
≥ 80%: percent control (mortality, anti-feedant effect or growth inhibition) at 200 ppm (Chilo suppressalis) | mortality at 500 ppm (Plutella xylostella [1]) | percent control (mortality or growth inhibition) at 200 ppm (Plutella xylostella [2]) | percent control (mortality or growth inhibition) at 200 ppm (Diabrotica balteata)

CC(NC(=O)c1cc(OC(F)F)cc(C(F)(F)F)c1)c1ncnn1-c1ccc(C#N)cn1 (stereo not shown) [Compound F13, N-[1-[2-(5-cyano-2-pyridyl)-1,2,4-triazol-3-yl]ethyl]-3-(difluoromethoxy)-5-(trifluoromethyl) benzamide]
≥ 80%: percent control (mortality, anti-feedant effect or growth inhibition) at 200 ppm (Spodoptera littoralis) | percent control (mortality or growth inhibition) at 200 ppm (Plutella xylostella [2]) | percent control (mortality or growth inhibition) at 200 ppm (Diabrotica balteata)

CC(NC(=O)c1cc(Br)cc(C(F)(F)F)c1)c1ncnn1-c1ccc(C#N)cn1 (stereo not shown) [Compound F14, 3-bromo-N-[1-[2-(5-cyano-2-pyridyl)-1,2,4-triazol-3-yl]ethyl]-5-(trifluoromethyl) benzamide]
≥ 80%: percent control (mortality, anti-feedant effect or growth inhibition) at 200 ppm (Spodoptera littoralis) | percent control (mortality or growth inhibition) at 200 ppm (Plutella xylostella [2]) | percent control (mortality or growth inhibition) at 200 ppm (Diabrotica balteata)

CC(NC(=O)c1cc(C(F)F)cc(C(F)(F)F)c1)c1ncnn1-c1ccc(C#N)cn1 (stereo not shown) [Compound F15, N-[1-[2-(5-cyano-2-pyridyl)-1,2,4-triazol-3-yl]ethyl]-3-(difluoromethyl)-5-(trifluoromethyl) benzamide]
≥ 80%: percent control (mortality, anti-feedant effect or growth inhibition) at 200 ppm (Chilo suppressalis) | percent control (mortality, anti-feedant effect or growth inhibition) at 200 ppm (Spodoptera littoralis) | percent control (mortality or growth inhibition) at 200 ppm (Plutella xylostella [2]) | percent control (mortality or growth inhibition) at 200 ppm (Diabrotica balteata)

CC(NC(=O)c1cc(OC(F)(F)F)cc(C(F)(F)F)c1)c1ncnn1-c1ccc(C#N)cn1 (stereo not shown) [Compound F17, N-[1-[2-(5-cyano-2-pyridyl)-1,2,4-triazol-3-yl]ethyl]-3-(trifluoromethoxy)-5-(trifluoromethyl) benzamide]
≥ 80%: percent control (mortality, anti-feedant effect or growth inhibition) at 200 ppm (Chilo suppressalis) | percent control (mortality, anti-feedant effect or growth inhibition) at 200 ppm (Spodoptera littoralis) | mortality at 500 ppm (Plutella xylostella [1]) | percent control (mortality or growth inhibition) at 200 ppm (Plutella xylostella [2]) | percent control (mortality or growth inhibition) at 200 ppm (Diabrotica balteata)

CC(NC(=O)c1cc(OCC(F)F)cc(C(F)(F)F)c1)c1ncnn1-c1ccc(C#N)cn1 (stereo not shown) [Compound F18, N-[1-[2-(5-cyano-2-pyridyl)-1,2,4-triazol-3-yl]ethyl]-3-(2,2-difluoroethoxy)-5-(trifluoromethyl) benzamide]
≥ 80%: percent control (mortality, anti-feedant effect or growth inhibition) at 200 ppm (Chilo suppressalis) | percent control (mortality, anti-feedant effect or growth inhibition) at 200 ppm (Spodoptera littoralis) | mortality at 500 ppm (Plutella xylostella [1]) | percent control (mortality or growth inhibition) at 200 ppm (Plutella xylostella [2]) | percent control (mortality or growth inhibition) at 200 ppm (Diabrotica balteata)

CC(NC(=O)c1cc(Br)cc(OCC(F)(F)F)c1)c1ncnn1-c1ccc(C#N)cn1 (stereo not shown) [Compound F19, 3-bromo-N-[1-[2-(5-cyano-2-pyridyl)-1,2,4-triazol-3-yl]ethyl]-5-(2,2,2-trifluoroethoxy) benzamide]
≥ 80%: percent control (mortality, anti-feedant effect or growth inhibition) at 200 ppm (Chilo suppressalis) | percent control (mortality, anti-feedant effect or growth inhibition) at 200 ppm (Spodoptera littoralis) | mortality at 500 ppm (Plutella xylostella [1]) | percent control (mortality or growth inhibition) at 200 ppm (Plutella xylostella [2])

CC(NC(=O)c1cc(Br)cc(OCC(F)F)c1)c1ncnn1-c1ccc(C#N)cn1 (stereo not shown) [Compound F20, 3-bromo-N-[1-[2-(5-cyano-2-pyridyl)-1,2,4-triazol-3-yl]ethyl]-5-(2,2-difluoroethoxy) benzamide]
≥ 80%: percent control (mortality, anti-feedant effect or growth inhibition) at 200 ppm (Chilo suppressalis) | percent control (mortality, anti-feedant effect or growth inhibition) at 200 ppm (Spodoptera littoralis) | mortality at 500 ppm (Plutella xylostella [1]) | percent control (mortality or growth inhibition) at 200 ppm (Plutella xylostella [2])

CC(NC(=O)c1cc(OCC(F)(F)F)cc(C(F)(F)F)c1)c1ncnn1-c1ccc(C#N)cn1 (stereo not shown) [Compound F21, N-[1-[2-(5-cyano-2-pyridyl)-1,2,4-triazol-3-yl]ethyl]-3-(2,2,2-trifluoroethoxy)-5-(trifluoromethyl) benzamide]
≥ 80%: percent control (mortality, anti-feedant effect or growth inhibition) at 200 ppm (Chilo suppressalis) | percent control (mortality, anti-feedant effect or growth inhibition) at 200 ppm (Spodoptera littoralis) | mortality at 500 ppm (Plutella xylostella [1]) | percent control (mortality or growth inhibition) at 200 ppm (Plutella xylostella [2]) | percent control (mortality or growth inhibition) at 200 ppm (Diabrotica balteata)

CC(NC(=O)c1cc(Cl)cc(Cl)c1)c1ncnn1-c1ccc(C#N)cn1 (stereo not shown) [Compound F22, 3,5-dichloro-N-[1-[2-(5-cyano-2-pyridyl)-1,2,4-triazol-3-yl]ethyl]benzamide]
≥ 80%: percent control (mortality, anti-feedant effect or growth inhibition) at 200 ppm (Chilo suppressalis) | percent control (mortality, anti-feedant effect or growth inhibition) at 200 ppm (Spodoptera littoralis) | percent control (mortality or growth inhibition) at 200 ppm (Plutella xylostella [2]) | percent control (mortality or growth inhibition) at 200 ppm (Diabrotica balteata)

CC(NC(=O)c1cc(Cl)cc(Br)c1)c1ncnn1-c1ccc(C#N)cn1 (stereo not shown) [Compound F23, 3-bromo-5-chloro-N-[1-[2-(5-cyano-2-pyridyl)-1,2,4-triazol-3-yl]ethyl]benzamide]
≥ 80%: percent control (mortality, anti-feedant effect or growth inhibition) at 200 ppm (Spodoptera littoralis) | percent control (mortality or growth inhibition) at 200 ppm (Plutella xylostella [2]) | percent control (mortality or growth inhibition) at 200 ppm (Diabrotica balteata)
